These results are taken from US11041000B2, “Peptide inhibitors of interleukin-23 receptor and their use to treat inflammatory diseases” (priority 2019, dated 2021).

Bridge positions count the residues as written; N and C are the ends. Square brackets hold non-standard residues; d marks the D form. Peptide text beside a SMILES is read from it. Trp(7-Me) = Cc1cccc2c(C[C@H](N)C(=O)O)c[nH]c12; 2Nal = N[C@@H](Cc1ccc2ccccc2c1)C(=O)O; AEF = NCCOc1ccc(C[C@H](N)C(=O)O)cc1; Cit = NC(=O)NCCC[C@H](N)C(=O)O; Pen = CC(C)(S)[C@H](N)C(=O)O; hLeu = CC(C)CC[C@H](N)C(=O)O; αMeK = C[C@](N)(CCCCN)C(=O)O; Dab = NCC[C@H](N)C(=O)O; Aib = CC(C)(N)C(=O)O; βAla = NCCC(=O)O; Sar = CNCC(=O)O A value given as a limit tells only on which side of the number the result lay.

Type in all cases: in vitro ADME
Data set [1] can be described thus: Stability in cynomolgus monkey fecal homogenate. As to conditions: 20% fecal homogenate (supernatant), pH 6.8, 20% cynomolgus monkey fecal homogenate, anaerobic, 37° C., read-out: t½: Monkey Feces anaerobic (converted). The protocol:
(§1) Centrifuged the homogenate at 2800×g for 15 min. The supernatant is taken out and used for incubations. […] The final test compound concentration was 20 μM.

A short description of another data set: Stability in rat plasma. The following applies: both sexes, SD rat plasma, EDTA, 37° C., read-out: t½: Rat Plasma EDTA (converted).
Data set [2] in a line: Stability in simulated intestinal fluid (SIF). As to conditions: simulated intestinal fluid with pancreatin, pH 6.8, 37° C., matrix is 100 fold dilution of standard SIF concentration; for half-life at 20 μM: read-out: SIF t½ (converted); for SIF t½: 20 μM.
The nature of data set [3]: Stability in human fecal homogenate. As to conditions: 20% fecal homogenate (supernatant), pH 6.8, 20% human fecal homogenate, anaerobic, 37° C., read-out: t½: Human Feces anaerobic (converted). As for the experimental part: as §1

In the case of `CC(=O)NCCCC[C@@H]1NC(=O)[C@H](Cc2c[nH]c3c(C)cccc23)NC(=O)[C@H]([C@@H](C)O)NC(=O)[C@H](CCNC(C)=O)NC(=O)[C@@H](NC(C)=O)C(C)(C)SSC(C)(C)[C@@H](C(=O)N[C@@H](Cc2ccc(OCCN)cc2)C(=O)N[C@@H](Cc2ccc3ccccc3c2)C(=O)N[C@@](C)(CCCCN)C(=O)N[C@@H](CCCCNC(C)=O)C(=O)N[C@@H](CC(N)=O)C(=O)N[C@H](CC(C)C)C(N)=O)NC1=O` [compound 335] (Ac-[Pen][Dab](Ac)T[Trp(7-Me)]K(Ac)[Pen][AEF][2Nal][αMeK]K(Ac)N[dL]-NH2; disulfide 1-6), the half-life at 20 μM in data set [1] was over 24 h; in the data set “Stability in rat plasma”, over 24 h; in data set [2], 20 h; in data set [3] it was over 24 h.
Take `CC(=O)NCCCC[C@@H]1NC(=O)[C@H](Cc2c[nH]c3c(C)cccc23)NC(=O)[C@H]([C@@H](C)O)NC(=O)[C@H](CCCNC(=N)N)NC(=O)[C@@H](NC(C)=O)C(C)(C)SSC(C)(C)[C@@H](C(=O)N[C@@H](Cc2ccc(OCCN)cc2)C(=O)N[C@@H](Cc2ccc3ccccc3c2)C(=O)N[C@@](C)(CCCCN)C(=O)N[C@@H](CCCCNC(C)=O)C(=O)N[C@@H](CC(N)=O)C(=O)N[C@H](CC(C)C)C(N)=O)NC1=O` [compound 336] (Ac-[Pen]RT[Trp(7-Me)]K(Ac)[Pen][AEF][2Nal][αMeK]K(Ac)N[dL]-NH2; disulfide 1-6): the half-life at 20 μM in data set [1] is over 24 h; in “Stability in rat plasma”, over 24 h; in data set [2], 10 h; in data set [3] it was over 24 h.
On to `CC(=O)NCCCC[C@@H]1NC(=O)[C@H](Cc2c[nH]c3c(C)cccc23)NC(=O)[C@H]([C@@H](C)O)NC(=O)[C@H](CCC(C)C)NC(=O)[C@@H](NC(C)=O)C(C)(C)SSC(C)(C)[C@@H](C(=O)N[C@@H](Cc2ccc(OCCN)cc2)C(=O)N[C@@H](Cc2ccc3ccccc3c2)C(=O)N[C@@](C)(CCCCN)C(=O)N[C@@H](CCCCNC(C)=O)C(=O)N[C@@H](CC(N)=O)C(=O)N[C@H](CC(C)C)C(N)=O)NC1=O` [compound 337] (Ac-[Pen][hLeu]T[Trp(7-Me)]K(Ac)[Pen][AEF][2Nal][αMeK]K(Ac)N[dL]-NH2; disulfide 1-6), for which the half-life at 20 μM (in data set [1]; in “Stability in rat plasma”; in data set [3]) was over 24 h throughout. Further, the “SIF t½” value in data set [2] is 24 h.
With `CC(=O)NCCCC[C@H](NC(=O)[C@](C)(CCCCN)NC(=O)[C@H](Cc1ccc2ccccc2c1)NC(=O)[C@H](Cc1ccc(OCCN)cc1)NC(=O)[C@H]1NC(=O)[C@H](CCCNC(N)=O)NC(=O)[C@H](Cc2c[nH]c3c(C)cccc23)NC(=O)[C@H]([C@@H](C)O)NC(=O)[C@H](CC(N)=O)NC(=O)[C@@H](NC(C)=O)C(C)(C)SSC1(C)C)C(=O)N[C@@H](CC(N)=O)C(=O)N(C)CC(N)=O` [compound 339] (Ac-[Pen]NT[Trp(7-Me)][Cit][Pen][AEF][2Nal][αMeK]K(Ac)N[Sar]-NH2; disulfide 1-6), the results for the half-life at 20 μM (in data set [1]; in the data set “Stability in rat plasma”; in data set [3]) were 18 h, over 24 h and over 24 h, respectively. For the same compound, the “SIF t½” value in data set [2] is 24 h.
In the case of `CC(=O)NCCCC[C@H](NC(=O)[C@](C)(CCCCN)NC(=O)[C@H](Cc1ccc2ccccc2c1)NC(=O)[C@H](Cc1ccc(OCCN)cc1)NC(=O)[C@H]1NC(=O)[C@H](CCCNC(N)=O)NC(=O)[C@H](Cc2c[nH]c3c(C)cccc23)NC(=O)[C@H]([C@@H](C)O)NC(=O)[C@H](CC(N)=O)NC(=O)[C@@H](NC(C)=O)C(C)(C)SSC1(C)C)C(=O)N[C@@H](CC(N)=O)C(=O)NC(C)(C)C(=O)NCCC(N)=O` [compound 340] (Ac-[Pen]NT[Trp(7-Me)][Cit][Pen][AEF][2Nal][αMeK]K(Ac)N[Aib][βAla]-NH2; disulfide 1-6), the half-life at 20 μM in data set [1] was over 24 h; in the data set “Stability in rat plasma” it was over 24 h; in data set [2], 17 h; in data set [3] it was over 24 h.
Turning to `CC(=O)NCCCC[C@H](NC(=O)[C@](C)(CCCCN)NC(=O)[C@H](Cc1ccc2ccccc2c1)NC(=O)[C@H](Cc1ccc(OCCN)cc1)NC(=O)[C@H]1NC(=O)[C@H](CCCNC(N)=O)NC(=O)[C@H](Cc2c[nH]c3c(C)cccc23)NC(=O)[C@H]([C@@H](C)O)NC(=O)[C@H](CC(N)=O)NC(=O)[C@@H](NC(C)=O)C(C)(C)SSC1(C)C)C(=O)N[C@@H](CC(N)=O)C(=O)NC(C)(C)C(=O)NCC(N)=O` [compound 341] (Ac-[Pen]NT[Trp(7-Me)][Cit][Pen][AEF][2Nal][αMeK]K(Ac)N[Aib]G-NH2; disulfide 1-6), the half-life at 20 μM in data set [1] is over 24 h; in the data set “Stability in rat plasma”, over 24 h; in data set [2], 17 h; in data set [3], over 24 h.
For the compound `CC(=O)NCCCC[C@H](NC(=O)[C@](C)(CCCCN)NC(=O)[C@H](Cc1ccc2ccccc2c1)NC(=O)[C@H](Cc1ccc(OCCN)cc1)NC(=O)[C@H]1NC(=O)[C@H](CCCNC(N)=O)NC(=O)[C@H](Cc2c[nH]c3c(C)cccc23)NC(=O)[C@H]([C@@H](C)O)NC(=O)[C@H](CC(N)=O)NC(=O)[C@@H](NC(C)=O)C(C)(C)SSC1(C)C)C(=O)N[C@@H](CC(N)=O)C(=O)NC(C)(C)C(=O)N[C@@H](C)C(N)=O` [compound 342] (Ac-[Pen]NT[Trp(7-Me)][Cit][Pen][AEF][2Nal][αMeK]K(Ac)N[Aib]A-NH2; disulfide 1-6), the half-life at 20 μM in data set [1] was 15 h; in “Stability in rat plasma”, over 24 h; in data set [2], 16 h; in data set [3], 12 h.
The matching figures for `CC(=O)NCCCC[C@H](NC(=O)[C@](C)(CCCCN)NC(=O)[C@H](Cc1ccc2ccccc2c1)NC(=O)[C@H](Cc1ccc(OCCN)cc1)NC(=O)[C@H]1NC(=O)[C@H](CCCNC(N)=O)NC(=O)[C@H](Cc2c[nH]c3c(C)cccc23)NC(=O)[C@H]([C@@H](C)O)NC(=O)[C@H](CC(N)=O)NC(=O)[C@@H](NC(C)=O)C(C)(C)SSC1(C)C)C(=O)N[C@@H](CC(N)=O)C(=O)NC(C)(C)C(=O)N[C@H](CCCCN)C(N)=O` [compound 344] (Ac-[Pen]NT[Trp(7-Me)][Cit][Pen][AEF][2Nal][αMeK]K(Ac)N[Aib][dK]-NH2; disulfide 1-6): over 24 h, over 24 h, 9 h and over 24 h.
The matching figures for `CC(=O)NCCCC[C@H](NC(=O)[C@](C)(CCCCN)NC(=O)[C@H](Cc1ccc2ccccc2c1)NC(=O)[C@H](Cc1ccc(OCCN)cc1)NC(=O)[C@H]1NC(=O)[C@H](CCCNC(N)=O)NC(=O)[C@H](Cc2c[nH]c3c(C)cccc23)NC(=O)[C@H]([C@@H](C)O)NC(=O)[C@H](CC(N)=O)NC(=O)[C@@H](NC(C)=O)C(C)(C)SSC1(C)C)C(=O)N[C@@H](CC(N)=O)C(=O)NC(C)(C)C(=O)N[C@H](Cc1ccccc1)C(N)=O` [compound 346] (Ac-[Pen]NT[Trp(7-Me)][Cit][Pen][AEF][2Nal][αMeK]K(Ac)N[Aib][dF]-NH2; disulfide 1-6): over 24 h, 24 h, 19 h and over 24 h.
